Measurements reported in ChEMBL document CHEMBL1201862, “PubChem BioAssay data set” (2004).
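Dose response: 5 concentrations. Exposure: 48 h. Format: 96-well plates. Endpoint: linear interpolation; highest concentration if not reached. Here, GI50 denotes the concentration required for 50% inhibition of growth.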 The source made the active and inactive calls. No stated cut-off is given here; in the data, active = GI50 up to about 1.1 µM and inactive = higher.

Tests used:
Test in all cases: NCI anticancer screen, dose series, 48 h
786-0 = tested on: 786-0
ACHN = tested on: ACHN
SK-MEL-5 = tested on: SK-MEL-5
LXFL 529 = tested on: LXFL 529
XF498 = tested on: XF498
HCT-15 = tested on: HCT-15
OVCAR-8 = tested on: OVCAR-8
UO-31 = tested on: UO-31
Malme-3M = tested on: Malme-3M
IGROV-1 = tested on: IGROV-1
A549 = tested on: A549
EKVX = tested on: EKVX
MOLT-4 = tested on: MOLT-4
SF-539 = tested on: SF-539
KM12 = tested on: KM12
UACC-257 = tested on: UACC-257
RXF 393 = tested on: RXF 393
T47D = tested on: T47D
MDA-MB-231 = tested on: MDA-MB-231
DU-145 = tested on: DU-145

Compound	GI50 (786-0)	GI50 (ACHN)	GI50 (SK-MEL-5)	GI50 (LXFL 529)	GI50 (XF498)	GI50 (HCT-15) [µM]	GI50 (OVCAR-8)	GI50 (UO-31)	GI50 (Malme-3M)	GI50 (IGROV-1)	GI50 (A549)	GI50 (EKVX)	GI50 (MOLT-4)	GI50 (SF-539)	GI50 (KM12)	GI50 (UACC-257)	GI50 (RXF 393)	GI50 (T47D)	GI50 (MDA-MB-231)	GI50 (DU-145)
Cc1ccc(S(=O)(=O)c2c3nc4ccccc4nc3n3c2[nH]c2ccccc23)cc1	> 100 µM (inactive)	> 100 µM (inactive)	> 100 µM (inactive)	> 100 µM (inactive)	> 100 µM (inactive)	> 100	> 100 µM (inactive)	> 100 µM (inactive)	> 100 µM (inactive)	8.13 µM (inactive)	> 100 µM (inactive)	> 100 µM (inactive)	> 100 µM (inactive)	> 100 µM (inactive)	58.1 µM (inactive)	> 100 µM (inactive)	–	–	–	–
COC(OC)c1cccc2c1C1(O)CCC3(CC21)OCCCCO3 (configuration not stated)	> 100 µM (inactive)	> 100 µM (inactive)	> 100 µM (inactive)	> 100 µM (inactive)	–	> 100	> 100 µM (inactive)	> 100 µM (inactive)	> 100 µM (inactive)	> 100 µM (inactive)	> 100 µM (inactive)	–	> 100 µM (inactive)	> 100 µM (inactive)	> 100 µM (inactive)	> 100 µM (inactive)	> 100 µM (inactive)	–	–	–
O=C(c1ccccc1)N1CCc2c([nH]c3ccccc23)C1	54.7 µM (inactive)	36.9 µM (inactive)	20.9 µM (inactive)	36.4 µM (inactive)	20.8 µM (inactive)	49.1	29.5 µM (inactive)	22.5 µM (inactive)	35.8 µM (inactive)	52.2 µM (inactive)	50.4 µM (inactive)	44.6 µM (inactive)	24.5 µM (inactive)	76.9 µM (inactive)	48.8 µM (inactive)	28.7 µM (inactive)	–	–	–	–
COc1cc(/C=C2\NC(=O)C(Cc3cc(OC)c(OC)c(C)c3OC)N(C(C)=O)C2=O)c(OC)c(C)c1OC (configuration not stated)	> 100 µM (inactive)	> 100 µM (inactive)	42.9 µM (inactive)	72.8 µM (inactive)	–	–	72.8 µM (inactive)	85.1 µM (inactive)	83.6 µM (inactive)	> 100 µM (inactive)	> 100 µM (inactive)	43.7 µM (inactive)	33.3 µM (inactive)	> 100 µM (inactive)	94.6 µM (inactive)	> 100 µM (inactive)	95.5 µM (inactive)	–	–	–
CC(C)NC1CCCCC2c3cc(F)ccc3[C@]12O (some centres not stated)	> 100 µM (inactive)	> 100 µM (inactive)	> 100 µM (inactive)	> 100 µM (inactive)	–	> 100	> 100 µM (inactive)	> 100 µM (inactive)	> 100 µM (inactive)	> 100 µM (inactive)	> 100 µM (inactive)	> 100 µM (inactive)	> 100 µM (inactive)	> 100 µM (inactive)	> 100 µM (inactive)	> 100 µM (inactive)	> 100 µM (inactive)	–	–	–
COc1cc2c(c(OC)c1OC)C(=O)[C@@H]1[C@H]2N1C(=O)NCCCl	> 100 µM (inactive)	50.5 µM (inactive)	46.8 µM (inactive)	–	–	36.1	79.4 µM (inactive)	73.5 µM (inactive)	64.7 µM (inactive)	33.5 µM (inactive)	58.2 µM (inactive)	53 µM (inactive)	50.7 µM (inactive)	72.4 µM (inactive)	53.3 µM (inactive)	79.8 µM (inactive)	53.3 µM (inactive)	48.3 µM (inactive)	> 100 µM (inactive)	66.8 µM (inactive)
C[As+](C)(c1ccc(Br)c([N+](=O)[O-])c1)c1ccc(Br)c([N+](=O)[O-])c1	> 100 µM (inactive)	> 100 µM (inactive)	9.12 µM (inactive)	–	–	> 100	> 100 µM (inactive)	> 100 µM (inactive)	18.5 µM (inactive)	> 100 µM (inactive)	> 100 µM (inactive)	> 100 µM (inactive)	> 100 µM (inactive)	> 100 µM (inactive)	> 100 µM (inactive)	> 100 µM (inactive)	> 100 µM (inactive)	> 100 µM (inactive)	> 100 µM (inactive)	> 100 µM (inactive)
CCCCCCCCCCCCc1ccc(S(=O)(=O)O)cc1	> 100 µM (inactive)	> 100 µM (inactive)	> 100 µM (inactive)	–	–	> 100	> 100 µM (inactive)	> 100 µM (inactive)	> 100 µM (inactive)	11.5 µM (inactive)	> 100 µM (inactive)	> 100 µM (inactive)	> 100 µM (inactive)	> 100 µM (inactive)	> 100 µM (inactive)	64.6 µM (inactive)	> 100 µM (inactive)	> 100 µM (inactive)	> 100 µM (inactive)	> 100 µM (inactive)
